In US8796289B2 (AbbVie Inc., priority 2011, dated 2014):

What follows are molecules tested against GST-tagged-Wee1 kinase (Homo sapiens, UniProt P30291) (assay: Wee1 time-resolved fluorescence equilibrium binding assay (displacement of Oregon Green-labeled ATP-competitive kinase probe)).
Chain of GST-tagged-Wee1 kinase (P30291 whole entry): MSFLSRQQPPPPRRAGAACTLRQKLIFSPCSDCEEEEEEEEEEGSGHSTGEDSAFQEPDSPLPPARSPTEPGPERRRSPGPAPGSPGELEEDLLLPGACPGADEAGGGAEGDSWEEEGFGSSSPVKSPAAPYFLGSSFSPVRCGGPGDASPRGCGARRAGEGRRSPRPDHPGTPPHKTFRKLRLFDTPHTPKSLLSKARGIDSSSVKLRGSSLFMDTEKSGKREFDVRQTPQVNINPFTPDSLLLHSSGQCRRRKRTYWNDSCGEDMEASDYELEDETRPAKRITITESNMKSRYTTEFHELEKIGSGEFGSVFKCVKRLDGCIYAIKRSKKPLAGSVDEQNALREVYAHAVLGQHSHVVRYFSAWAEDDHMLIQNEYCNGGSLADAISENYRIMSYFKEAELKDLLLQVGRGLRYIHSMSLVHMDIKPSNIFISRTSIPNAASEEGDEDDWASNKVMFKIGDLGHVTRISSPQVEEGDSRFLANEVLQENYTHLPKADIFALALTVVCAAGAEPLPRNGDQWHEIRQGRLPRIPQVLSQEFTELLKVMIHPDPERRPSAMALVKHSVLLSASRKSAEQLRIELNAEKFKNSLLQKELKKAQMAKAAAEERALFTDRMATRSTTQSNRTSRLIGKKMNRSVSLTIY
Method: Wee1 kinase was assayed using a time-resolved fluorescence equilibrium binding assay monitoring displacement of a rapidly reversible Oregon Green-labeled ATP-competitive kinase probe (N-(2-(2-(2-(4-(4-(5-chloro-4-(2-(1-hydroxycyclobutyl)thiazol-5-yl)-1H-pyrrolo[2,3-b]pyridin-2-yl)phenyl)piperazin-1-yl)ethoxy)ethoxy)ethyl)-2′,7′-difluoro-3′,6′-dihydroxy-3-oxo-3H-spiro[isobenzofuran-1,9′-xanthene]-5-carboxamide) by competitive Wee1 inhibitors.
In the case of `CN1Cc2cc(Nc3ncc4c(=O)n(C5CCCCC5)nc(-c5ccccn5)c4n3)ccc2C(C)(C)C1` [Example 262, 6-cyclohexyl-8-(pyridin-2-yl)-2-[(2,4,4-trimethyl-1,2,3,4-tetrahydroisoquinolin-7-yl)amino]pyrimido[4,5-d]pyridazin-5(6H)-one], the Ki is reported as 590 nM.
In the case of `CC1(C)CNCc2cc(Nc3ncc4c(=O)n(-c5c(Cl)cccc5Cl)nc(-c5ccccn5)c4n3)ccc21` [Example 263, 6-(2,6-dichlorophenyl)-2-[(4,4-dimethyl-1,2,3,4-tetrahydroisoquinolin-7-yl)amino]-8-(pyridin-2-yl)pyrimido[4,5-d]pyridazin-5(6H)-one], the Ki is reported as 0.3 nM.
`CC1(C)CNCc2cc(Nc3ncc4c(=O)n(-c5ccccn5)nc(-c5ccccn5)c4n3)ccc21` [Example 264, 2-[(4,4-dimethyl-1,2,3,4-tetrahydroisoquinolin-7-yl)amino]-6,8-di(pyridin-2-yl)pyrimido[4,5-d]pyridazin-5(6H)-one] gave a Ki of 12 nM.
In the case of `O=c1c2cnc(Nc3ccc(N4CCNCC4)cc3)nc2c(-c2ccccn2)nn1CCO` [Example 267, 6-(2-hydroxyethyl)-2-{[4-(piperazin-1-yl)phenyl]amino}-8-(pyridin-2-yl)pyrimido[4,5-d]pyridazin-5(6H)-one], the Ki is reported as 240 nM.
Molecule `COCn1ccc(-c2nn(-c3c(Cl)cccc3Cl)c(=O)c3cnc(Nc4ccc(N5CCN(C)CC5)cc4)nc23)n1` [Example 268, 6-(2,6-dichlorophenyl)-8-[1-(methoxymethyl)-1H-pyrazol-3-yl]-2-{[4-(4-methylpiperazin-1-yl)phenyl]amino}pyrimido[4,5-d]pyridazin-5(6H)-one] has a Ki of 0.1 nM.
`C=CCn1nc(-c2ccco2)c2nc(Nc3ccc(N4CCCC4=O)cc3)ncc2c1=O` [Example 269, 8-(furan-2-yl)-2-{[4-(2-oxopyrrolidin-1-yl)phenyl]amino}-6-(prop-2-en-1-yl)pyrimido[4,5-d]pyridazin-5(6H)-one] gave a Ki of 58 nM.
`CN1CCN(c2ccc(Nc3ncc4c(=O)n(-c5c(Cl)cccc5Cl)nc(-c5ccn(CCO)n5)c4n3)cc2)CC1` [Example 270, 6-(2,6-dichlorophenyl)-8-[1-(2-hydroxyethyl)-1H-pyrazol-3-yl]-2-{[4-(4-methylpiperazin-1-yl)phenyl]amino}pyrimido[4,5-d]pyridazin-5(6H)-one] was tested, and the Ki was < 1 nM.
In the case of `CN1CCN(c2ccc(Nc3ncc4c(=O)n(-c5c(Cl)cccc5Cl)nc(-c5cnccn5)c4n3)cc2)CC1` [Example 271, 6-(2,6-dichlorophenyl)-2-{[4-(4-methylpiperazin-1-yl)phenyl]amino}-8-(pyrazin-2-yl)pyrimido[4,5-d]pyridazin-5(6H)-one], the Ki is reported as 0.4 nM.
With `CC(C)n1nc(-c2ccccn2)c2nc(Nc3ccc(N4CCN(C)CC4)cc3)ncc2c1=O` [Example 272, 2-{[4-(4-methylpiperazin-1-yl)phenyl]amino}-6-(propan-2-yl)-8-(pyridin-2-yl)pyrimido[4,5-d]pyridazin-5(6H)-one] the Ki was 100 nM.
With `CC(C)n1nc(-c2ccncc2)c2nc(Nc3ccc(N4CCN(C)CC4)cc3)ncc2c1=O` [Example 273, 2-{[4-(4-methylpiperazin-1-yl)phenyl]amino}-6-(propan-2-yl)-8-(pyridin-4-yl)pyrimido[4,5-d]pyridazin-5(6H)-one] the Ki was 11 nM.
In the case of `CC(C)n1nc(-c2ccccn2)c2nc(Nc3ccc4c(c3)CN(C)CC43CC3)ncc2c1=O` [Example 274, 2-[(2′-methyl-2′,3′-dihydro-1′H-spiro[cyclopropane-1,4′-isoquinolin]-7′-yl)amino]-6-(propan-2-yl)-8-(pyridin-2-yl)pyrimido[4,5-d]pyridazin-5(6H)-one], the Ki is reported as 179 nM.
`CC(C)n1nc(-c2ccncc2)c2nc(Nc3ccc4c(c3)CN(C)CC43CC3)ncc2c1=O` [Example 275, 2-[(2′-methyl-2′,3′-dihydro-1′H-spiro[cyclopropane-1,4′-isoquinolin]-7′-yl)amino]-6-(propan-2-yl)-8-(pyridin-4-yl)pyrimido[4,5-d]pyridazin-5(6H)-one] gave a Ki of 3.2 nM.
Work on `CN1CCN(c2ccc(Nc3ncc4c(=O)n(-c5c(Cl)cccc5Cl)nc(-c5ccc(Br)cc5)c4n3)cc2)CC1` [Example 276, 8-(4-bromophenyl)-6-(2,6-dichlorophenyl)-2-{[4-(4-methylpiperazin-1-yl)phenyl]amino}pyrimido[4,5-d]pyridazin-5(6H)-one] yielded a Ki of 1.1 nM.
For `COC(=O)c1ccc(-c2nn(-c3c(Cl)cccc3Cl)c(=O)c3cnc(Nc4ccc(N5CCN(C)CC5)cc4)nc23)cc1` [Example 277, methyl 4-[6-(2,6-dichlorophenyl)-2-{[4-(4-methylpiperazin-1-yl)phenyl]amino}-5-oxo-5,6-dihydropyrimido[4,5-d]pyridazin-8-yl]benzoate], the Ki was 1.2 nM.
`CN1CCN(c2ccc(Nc3ncc4c(=O)n(-c5c(Cl)cccc5Cl)nc(C5CCC5)c4n3)cc2)CC1` [Example 278, 8-cyclobutyl-6-(2,6-dichlorophenyl)-2-{[4-(4-methylpiperazin-1-yl)phenyl]amino}pyrimido[4,5-d]pyridazin-5(6H)-one] was tested, and the Ki was 0.83 nM.
In the case of `O=c1c2cnc(Nc3ccc(N4CCNCC4)cc3)nc2c(C2CCC2)nn1-c1c(Cl)cccc1Cl` [Example 279, 8-cyclobutyl-6-(2,6-dichlorophenyl)-2-{[4-(piperazin-1-yl)phenyl]amino}pyrimido[4,5-d]pyridazin-5(6H)-one], the Ki is reported as 1.2 nM.
`CN1Cc2cc(Nc3ncc4c(=O)n(-c5c(Cl)cccc5Cl)nc(C5CCC5)c4n3)ccc2C2(CC2)C1` [Example 280, 8-cyclobutyl-6-(2,6-dichlorophenyl)-2-[(2′-methyl-2′,3′-dihydro-1′H-spiro[cyclopropane-1,4′-isoquinolin]-7′-yl)amino]pyrimido[4,5-d]pyridazin-5(6H)-one] was tested, and the Ki was 0.51 nM.
In the case of `O=c1c2cnc(Nc3ccc4c(c3)CNCC43CC3)nc2c(C2CCC2)nn1-c1c(Cl)cccc1Cl` [Example 281, 8-cyclobutyl-6-(2,6-dichlorophenyl)-2-(2′,3′-dihydro-1′H-spiro[cyclopropane-1,4′-isoquinolin]-7′-ylamino)pyrimido[4,5-d]pyridazin-5(6H)-one], the Ki is reported as 0.53 nM.
For `CN1CCN(c2ccc(Nc3ncc4c(=O)n(C5CCC5)nc(-c5ccncc5)c4n3)cc2)CC1` [Example 282, 6-cyclobutyl-2-{[4-(4-methylpiperazin-1-yl)phenyl]amino}-8-(pyridin-4-yl)pyrimido[4,5-d]pyridazin-5(6H)-one], the Ki was 58 nM.
`CC1(C)CNCc2cc(Nc3ncc4c(=O)n(CCO)nc(-c5ccccn5)c4n3)ccc21` [Example 283, 2-[(4,4-dimethyl-1,2,3,4-tetrahydroisoquinolin-7-yl)amino]-6-(2-hydroxyethyl)-8-(pyridin-2-yl)pyrimido[4,5-d]pyridazin-5(6H)-one] was tested, and the Ki was 30 nM.
For `O=c1c2cnc(Nc3ccc(N4CCNCC4)cc3)nc2c(-c2ccccn2)nn1-c1c(Cl)cccc1Cl` [Example 284, 6-(2,6-dichlorophenyl)-2-{[4-(piperazin-1-yl)phenyl]amino}-8-(pyridin-2-yl)pyrimido[4,5-d]pyridazin-5(6H)-one], the Ki was 0.36 nM.
`O=c1c2cnc(Nc3ccc(N4CCNCC4)cc3)nc2c(-c2ccccn2)nn1-c1ccccn1` [Example 285, 2-{[4-(piperazin-1-yl)phenyl]amino}-6,8-di(pyridin-2-yl)pyrimido[4,5-d]pyridazin-5(6H)-one] gave a Ki of 8.4 nM.
`O=c1c2cnc(Nc3ccc(N4CCNCC4)cc3)nc2c(-c2ccccn2)nn1-c1cccc2ccccc12` [Example 286, 6-(naphthalen-1-yl)-2-{[4-(piperazin-1-yl)phenyl]amino}-8-(pyridin-2-yl)pyrimido[4,5-d]pyridazin-5(6H)-one] showed a Ki of 9.4 nM.
`CN1Cc2cc(Nc3ncc4c(=O)n(-c5ccccn5)nc(-c5ccccn5)c4n3)ccc2C(C)(C)C1` [Example 287] showed a Ki of 11 nM.
With `CC(O)Cn1nc(-c2ccccn2)c2nc(Nc3ccc4c(c3)CN(C)CC4(C)C)ncc2c1=O` (stereo not drawn) [Example 288, 6-(2-hydroxypropyl)-8-(pyridin-2-yl)-2-[(2,4,4-trimethyl-1,2,3,4-tetrahydroisoquinolin-7-yl)amino]pyrimido[4,5-d]pyridazin-5(6H)-one] the Ki was 172 nM.
For `CC(O)Cn1nc(-c2ccccn2)c2nc(Nc3ccc(N4CCNCC4)cc3)ncc2c1=O` (stereo not drawn) [Example 289, 6-(2-hydroxypropyl)-2-{[4-(piperazin-1-yl)phenyl]amino}-8-(pyridin-2-yl)pyrimido[4,5-d]pyridazin-5(6H)-one], the Ki was 81 nM.
Work on `CN1CCN(c2ccc(Nc3ncc4c(=O)n(-c5c(Cl)cccc5Cl)nc(-c5ccc(C(=O)O)cc5)c4n3)cc2)CC1` [Example 290, 4-[6-(2,6-dichlorophenyl)-2-{[4-(4-methylpiperazin-1-yl)phenyl]amino}-5-oxo-5,6-dihydropyrimido[4,5-d]pyridazin-8-yl]benzoic acid] yielded a Ki of 0.33 nM.
`CN1CCN(c2ccc(Nc3ncc4c(=O)n(-c5c(Cl)cccc5Cl)nc(-c5ccc(C(=O)N(C)C)cc5)c4n3)cc2)CC1` [Example 291, 4-[6-(2,6-dichlorophenyl)-2-{[4-(4-methylpiperazin-1-yl)phenyl]amino}-5-oxo-5,6-dihydropyrimido[4,5-d]pyridazin-8-yl]-N,N-dimethylbenzamide] was tested, and the Ki was 0.38 nM.
In the case of `CN1CCN(c2ccc(Nc3ncc4c(=O)n(-c5c(Cl)cccc5Cl)nc(-c5ccc(C(=O)NC6CCC6)cc5)c4n3)cc2)CC1` [Example 292, N-cyclobutyl-4-[6-(2,6-dichlorophenyl)-2-{[4-(4-methylpiperazin-1-yl)phenyl]amino}-5-oxo-5,6-dihydropyrimido[4,5-d]pyridazin-8-yl]benzamide], the Ki is reported as 0.48 nM.
Work on `CNC(=O)c1ccc(-c2nn(-c3c(Cl)cccc3Cl)c(=O)c3cnc(Nc4ccc(N5CCN(C)CC5)cc4)nc23)cc1` [Example 293, 4-[6-(2,6-dichlorophenyl)-2-{[4-(4-methylpiperazin-1-yl)phenyl]amino}-5-oxo-5,6-dihydropyrimido[4,5-d]pyridazin-8-yl]-N-methylbenzamide] yielded a Ki of 0.25 nM.
